Source: patent US20260308116A1, “TERTIARY AMINE COMPOUNDS CONTAINING AN ALKYNE OR AN AZIDE MOIETY AND THEIR USE” (INSTITUT NATIONAL DE LA SANTÉ ET DE LA RECHERCHE MÉDICALE, priority 2023, published 2026)

Tests used:
[1] = system: HeLa cells; experiment: Antiproliferative assay (CellTiter-Glo), IC50; type: cell-based; conditions: 72 h, 0.032-50 μM, FIG. 2B
Description: (§1) Data are shown as mean±s.e.m. of 3 independent experiments, ns (not significant), *p<0.05, **p<0.01 and ***p<0.001 according to two-way ANOVA followed by Šidák multiple range test (A) or by Tukey multiple range test (F) or to one-way ANOVA followed by Tukey's multiple comparison test (B, E, G) and Mann-Whitney test (C).
In antiproliferative assays, compounds were assayed for their growth inhibiting activity towards the described cancer cell lines using the CellTiter-Glo Luminesent Cell Viability Assay as described by the manufacturer (Promega Corporation). Briefly, 5.10^3 cells were plated onto 96 well-plates (white with clear bottom (3610, Corning Costar) with 90 μL media per well, and incubated overnight. Compounds were added at different concentrations (varying from 50 to 0.032 μM) to each well and cell cultures were incubated at 37° C. during 72 h. Vehicle (DMSO) was used as control and all compounds were tested in constant percentage of DMSO (0.5%). After addition of 50 μL CellTiter GLO, luminescence was measured using a Centro luminometer LB960 (Berthold). Dose-response curves were generated and effective dose 50 values (EC50) were calculated using nonlinear regression analysis (Graph Pad Prism).

[2] = system: HeLa FANCD2 KO cells; experiment: Sensitivity of FANCD2-deficient cells (IC50 and clonogenic survival); type: cell-based; conditions: FIG. 2E, 2F
Description: as §1
(§2) 1000 Hela cells were seeded in triplicate in 10 cm dishes and allowed to attach for 4 hours before treatment for 1 hour with the indicated drugs. After 15 days, cells were washed, fixed and stained with crystal violet (Sigma). The number of colonies with >100 cells were counted. Results were normalized to plating efficiency. For each genotype, cell viability of untreated cells was defined as 100%. Data are represented as mean±SD from three independent experiments.
(§3) In antiproliferative assays, compounds were assayed for their growth inhibiting activity towards the described cancer cell lines using the CellTiter-Glo Luminesent Cell Viability Assay as described by the manufacturer (Promega Corporation). […]

[3] = system: HeLa ERCC1 KO cells; experiment: Sensitivity of ERCC1-deficient cells (IC50 and clonogenic survival); type: cell-based; conditions: FIG. 2E, 2F
Description: as §1, §2, §3

[4] = system: HeLa cells; experiment: Detection of click agents in cells by flow cytometry; type: cell-based; conditions: FIG. 3D
Description: HeLa, Jurkat and FA or XP primary cells (10^6 per dish) were seeded into 10 cm culture dishes and incubated overnight in culture medium. The following day, samples were treated with 0.5 μM click-Melphalan (Example 1), 0.5 μM click-MonoMelphalan (Example 2) or DMSO vehicle for 1 h. After treatment, cells were PBS-washed and released into medium. At designated time points, samples were harvested and fixed in EtOH 70%. Fixed cells where incubated in a click reaction buffer (50 μM Alexa fluor 647 azide, 1 mM copper (II) sulfate, 100 mM sodium ascorbate, 100 mM Tris-HCl pH 8.0) for 30 min at room temperature and then washed extensively using 3×5% FBS in PBS rinses to remove unbound reporter. Samples were stained with 5 μg/mL propidium iodide in 3% FBS in PBS and then analyzed using an LSR Fortessa flow cytometer (BD Biosciences, San Jose, CA). Ten thousand events were collected for each sample and gated using forward-versus side-scatter to eliminate cell debris and doublets. The data were analyzed using FlowJo software version 7.6.5 (Tree Star, San Carlos, CA).

[5] = system: BRCA2 KO RPE1 cell line; experiment: Repair of lesions in BRCA2-deficient cells, click reaction and flow cytometry; type: cell-based; conditions: BRCA2-deficient cells; FIG. 6D, 6F
[6] = system: HeLa FANCD2 KO cells; experiment: Lesion repair in cells synchronized at G1/S boundary (double thymidine block); type: cell-based; conditions: FIG. 7C, 8B
Description: (§4) FIG. 7: Analysis of the FA-dependent melphalan-ICL repair during the cell cycle. (A) Dual parameter plot of the click-mono-melphalan or melphalan subjected to the Alexa 647-click reaction with propidium iodide co-staining. Lesions repair is evaluated in HeLa and HeLa FANCD2 KO cells by flow cytometry at different time post treatment. The percentage of G1 phase cells is indicated in the left corner (black), S phase cells in the center (yellow) and G2 phase in the right corner (red); (B) HeLa cells were arrested in G1 phase using a double thymidine block. Cultures harvested at various time points after release were stained with propidium iodide and analyzed using flow cytometry; (C) Quantification of fluorescence intensity in HeLa WT or HeLa FANCD2 KO treated with click-melphalan clicked with Alexa Fluor 647 azide at the indicated time post treatment. Data are shown as mean±s.e.m. of 3 independent experiments. *p<0.05 according to two-way ANOVA followed by Šidák multiple range test.
(§5) FIG. 8: (A) HeLa WT and FANCD2 KO cells were synchronized at the G1/S boundary, treated or not with click-melphalan before release into drug free medium. Cell cycle profile was monitored by propidium iodide staining; (B) Quantification of fluorescence intensity in HeLa WT and FANCD2 KO cell lines treated with click-melphalan at indicated times post treatment. […]

[7] = system: HeLa cells; experiment: as above; type: cell-based; conditions: FIG. 7C, 8B
Description: as §4, §5

[8] = system: HeLa cells; experiment: Clonogenic survival assay; conditions: for number of colonies formed (clonogenic survival): 1 h treatment, colonies after 15 days, parent vs click compound, FIG. 1A, 1B
[9] = system: FANCD2; experiment: Detection of FANCD2 ubiquitination; conditions: FANCD2 mono ubiquitination by western blot, HeLa; FIG. 3B
[10] = system: HeLa cells; experiment: Detection of G2 arrest by flow cytometry; conditions: FANCD2, γH2AX, G2 arrest, p53 and caspase taken together
[11] = system: HeLa cells; experiment: Reverse alkaline comet assay (ICL formation); conditions: for visual comet score in the absence of IR: no IR, 2C
[12] = system: HeLa cells; experiment: Repair of lesions in HeLa cells, click reaction and flow cytometry; conditions: WT HeLa, 48 h
[13] = system: DNA; experiment: Detection of click agents in cells by microscopy (Alexa Fluor 647 azide); conditions: HeLa, 0.5 μM; FIG. 3C
[14] = system: HeLa FANCD2 KO cells; experiment: Repair of lesions in HeLa FANCD2 KO cells, click reaction and flow cytometry; conditions: HeLa FANCD2 KO
[15] = system: PHA-stimulated lymphocytes from FA patients; experiment: Repair of lesions in FA patient lymphocytes; conditions: both FA patients, 48 h post treatment
[16] = system: fibroblast cells from XP patients (XP1, XP2); experiment: Repair of lesions in XP patient fibroblasts
[17] = system: cells from subject C3 (non-XP); experiment: Repair of lesions in control (non-XP) fibroblasts; conditions: subject C3, 48 h; FIG. 11B
[18] = system: primary fibroblast cells from FA patients (FA1, FA2); experiment: Repair of lesions in FA patient primary fibroblasts; conditions: FA1, FA2 vs C3, C4 fibroblasts; FIG. 9B
[19] = system: HeLa FANCD2 KO cells; experiment: Dual parameter plot assay (click / propidium iodide); conditions: FIG. 7A left panel

C#CCNC(=O)[C@@H](N)Cc1ccc(N(CCCl)CCCl)cc1 [click-melphalan, (S)-2-amino-3-(4-(bis(2-chloroethyl)amino)phenyl)-N-(prop-2-yn-1-yl)propanamide]
IC50 (parent vs click compound) [1]: further confirmed by the measurement of IC50 activity
sensitivity of FANCD2-deficient cells [2]: sensitive to click-melphalan
sensitivity of ERCC1-deficient cells [3]: sensitive to click-melphalan
concentration from which a fluorescent signal was detectable [4]: ≥ 0.5 µM
concentration up to which the fluorescent signal increases [4]: up to 2 μM
effect of time of treatment on level of fluorescence [4]: Extending the time of treatment increases the level of fluorescence
repair of click-melphalan-induced lesions [5]: strong defect in the repair
repair of lesions 10 h after release in S phase [6]: no significant repair
lesions repaired 10 h after release in S phase [7]: around 50%
number of colonies formed (clonogenic survival) [8]: similarly reduces the number of colonies formed with no significative differences
difference in toxicity between Melphalan and click-Melphalan ([8]; clonogenic assay): absence of differences in toxicity between Melphalan and click-Melphalan
minimum concentration required to detect a robust activation of the ICL repair pathway [9]: 0.5 µM
overall biological response, melphalan vs click-melphalan [10]: equivalent biological response
IR-induced tail moment after pre-treatment ([11]; 30 μM melphalan or click-melphalan, 60 min, then IR (10 Gy), FIG. 1C, 1D): large decrease in the IR-induced tail moment
reversal of tail moment, Melphalan vs click-Melphalan ([11]; 30 μM, 60 min, then IR (10 Gy)): no significant difference was observed between Melphalan or click-Melphalan
visual comet score in the absence of IR ([11]; FIG. 1C, 1D): neither Melphalan, click-Melphalan (Example 1), mono-melphalan (Comparative Example 1) nor click-mono-melphalan (Example 2) generated a visual comet score beyond the vehicle-treated control
repair of melphalan-induced lesions after 48 hours [12]: most of WT HeLa cells have repaired melphalan-induced lesions after 48 hours
fluorescence in cells after click reaction [13]: fluorescence could be detected in cells
red fluorescent staining profile vs DNA content [13]: essentially the same staining pattern as the DNA content
cells positive for melphalan ([14]; 48 h): all HeLa FANCD2 KO cells remained positive to melphalan
median fluorescence intensity ([14]; click-melphalan, FIG. 6B): no reduction of the median fluorescence intensity

N[C@@H](Cc1ccc(N(CCO)CCCl)cc1)C(=O)O [mono-melphalan, (S)-2-Amino-3-(4-((2-chloroethyl) (2-hydroxyethyl)amino)phenyl)propanoic acid]
number of colonies formed (clonogenic survival) [8]: similarly reduces the number of colonies formed with no significative differences
repair of lesions in PHA-stimulated lymphocytes [15]: able to repair mono-melphalan
cells still positive for mono-melphalan ([16]; XP1 and XP2, 48 h, FIG. 11B): ~100%
persistence of mono-melphalan-induced lesions ([16]; XP compared to non-XP cells, up to 48 h, FIG. 11A, 11B): persisted in the XP patient cells up to 48 hours
visual comet score in the absence of IR ([11]; FIG. 1C, 1D): neither Melphalan, click-Melphalan (Example 1), mono-melphalan (Comparative Example 1) nor click-mono-melphalan (Example 2) generated a visual comet score beyond the vehicle-treated control
cells still positive for mono-melphalan [17]: ~0%
reduction of signal during repair of lesions, FA vs non-FA cells [18]: No significant differences in the reduction of signal
dependence of the repair delay on DNA content [19]: observed in all cells independently of their DNA content
repair of DNA lesions at 24 h ([19]; HeLa FANCD2 KO compared to HeLa, 24 h): slightly delayed in HeLa FANCD2 KO at 24 h compared to HeLa cells
